Where a name gives a salt, the structure may show the parent alone.
System: vesico-anal reflex
Assay: acetic acid-induced vesico-anal reflex
Type: in vivo, rat
Details: for duration of the increase in vesico-anal reflex activity when administered alone / vesico-anal reflex activity when administered alone: atropine 30 μg/kg-1 mg/kg, oxybutynin 1-3 mg/kg
From the text: The model of visceral nociception that was used in the testing of the compounds according to the method of this invention is the acetic acid-induced vesico-anal reflex. This model utilizes infusion of a dilute acetic acid solution into the urinary bladder as a nociceptive stimulus and records increases in electromyographic (EMG) activity from the anal sphincter as the primary measured response. Anal sphincter EMG activity is composed of 2 components, 1) a small, long duration action potential (ca. 50 msec) that is sensitive to muscarinic antagonists and 2) a larger, short duration action potential (ca. 2 msec) that is sensitive to neuromuscular blocking agents (i.e. mediated by nicotinic receptors). […] It is the striated anal sphincter muscle activity that 1) is associated with bladder activity, 2) is increased by acetic acid infusion into the bladder, and 3) represents the vesico-anal reflex.
In the acetic acid-induced vesico-anal reflex model, bladders of urethane-anesthetized rats were cannulated through the dome for continuous-infusion cystometrogram recordings. EMG electrodes were inserted into the anus and the peri-urethral musculature for recording anal and urethral sphincteric activity, respectively.
Female Sprague-Dawley rats (200-300 g) were anesthetized with 1.4 g/kg urethane (0.7 g administered i.p. and 0.7 g administered s.c.), which was supplemented with 1% isoflurane during surgery. The urinary bladder was exposed through an abdominal incision and cannulated with PE60 tubing attached to a 22 gauge needle that was inserted through the dome of the bladder. A purse-string suture (5-0 silk) through the bladder held the needle in place. The cannula was connected to an infusion pump (Harvard Apparatus, Natick Mass.) and a pressure transducer (Statham Gould, Cleveland, Ohio) through a 3 way stopcock to allow bladder filling and pressure measurement, respectively. The abdominal incision was covered with plastic wrap. A small incision was made in the perineum to allow placement of EMG electrodes into the periurethral musculature. EMG electrodes were also placed into the muscular tissue of the anus. EMG electrodes were connected to preamplifiers (Grass P511, Quincey, Mass.) with low and high pass filters set at 10 and 3000 HZ. […] A catheter inserted into the carotid artery was connected to a pressure transducer (Statham Gould, Cleveland, Ohio) to record arterial pressure, which was used to trigger a heart rate meter (Biotach, Gould, Cleveland, Ohio). A catheter was inserted into the trachea to allow for artificial respiration and monitoring of expired CO2 (Sensor Medics. Anaheim, Calif.).
After establishing control levels of anal and urethral activity, compounds were administered intravenously. Oxotremorine sesquifumarate (Sigma Chemicals, St. Louis, Mo.), atropine sulfate (RBI, Natick, Mo.), (-) scopolamine methyl bromide (RBI), physostigmine free base (Sigma Chemicals), neostigmine bromide (Sigma) and the test compounds were all dissolved in physiological saline.

[1] = 0.5% acetic acid infused into the bladder or urethra

O=C1CCCN1CC#CCN1CCCC1 [Oxotremorine, Oxotremorine sesquifumarate]
inhibition of vesico-anal reflex activity (in words) (oxotremorine 1-30 μg/kg iv, test compounds 0.01-1.0 mg/kg iv): dose-dependent inhibition of vesico-anal reflex activity | inhibition of vesico-anal reflex activity (to % of control) (oxotremorine 1-30 μg/kg iv, urethane-anesthetized rats): 10 % of control

C[N+]1(C)[C@@H]2C[C@@H](OC(=O)[C@H](CO)c3ccccc3)C[C@H]1[C@@H]1O[C@@H]12 [Scopolamine methyl bromide, (-) scopolamine methyl bromide]
blocking of the cholinergic agonist-mediated inhibition of the vesico-anal reflex (scopolamine methyl bromide 1-30 ug/kg, peripherally-restricted): ineffective

CC(=O)O [acetic acid]
anal sphincter activity [1]: pronounced increases in anal sphincter activity | bladder contractile activity and urethral sphincter activity [1]: modest increases in bladder contractile activity and urethral sphincter activity | duration of acetic acid-induced increase in vesico-anal reflex activity (in 95% of the animals): over 2 hours

CN1C2CCC1CC(OC(=O)C(CO)c1ccccc1)C2 (stereo not drawn) [atropine, atropine sulfate]
duration of the increase in vesico-anal reflex activity when administered alone: 15 min | vesico-anal reflex activity when administered alone: robust, but transient (15 min.), increases in vesico-anal reflex activity | reversal of the cholinergic agonist-induced inhibition of vesico-anal reflex activity (atropine 0.3-1 mg/kg): reversed

CCN(CC)CC#CCOC(=O)C(O)(c1ccccc1)C1CCCCC1 (stereo not drawn) [oxybutynin]
duration of the increase in vesico-anal reflex activity when administered alone: 15 min | vesico-anal reflex activity when administered alone: robust, but transient (15 min.), increases in vesico-anal reflex activity

CNC(=O)Oc1ccc2c(c1)[C@]1(C)CCN(C)[C@@H]1N2C [physostigmine, physostigmine free base]
suppression of the VA reflex by cholinesterase inhibitor (centrally active (physostigmine) vs peripherally-restricted (neostigmine)): suppressed the VA reflex in a dose-dependent, atropine-sensitive manner

Source: patent US5710151A, “Method of treating urinary bladder dysfunctions” (priority 1996, dated 1998)
